Laboratory results taken from PMC10023679, “Amide-to-ester substitution as a stable alternative to N-methylation for increasing membrane permeability in cyclic peptides” (Nature Communications, 2023).
Like-named read-outs stand apart in the source and are kept apart here. Non-standard residues stand in square brackets, D forms with d. Residues, ends and D or L forms follow the SMILES beside them. NMeY = CN[C@@H](Cc1ccc(O)cc1)C(=O)O; Hpla = O=C(O)[C@@H](O)Cc1ccc(O)cc1; Hica(2S) = CC(C)C[C@H](O)C(=O)O

Key:
Mouse serum stability = type: in vitro ADME; settings: mouse serum containing 1% DMSO, 37 °C; for Stability in mouse serum: up to 24 h
Protocol: Compounds were incubated in mouse serum containing 1% DMSO at 37 °C for 24 h in triplicate. At each time point, 20 μL of the solution was aliquoted and diluted four times using acetonitrile to precipitate serum proteins. After centrifugation, the supernatant was diluted with water and the concentration of the intact peptide was quantified by LC-MS. For other peptides, the amount of residual intact peptides was evaluated after incubation in mouse plasma at 37 °C for 30 min. The amount of intact peptides was determined by taking the ratio of the LC-MS peak area of intact peptides just before and after the incubation.

[1] = 1,9-decadiene-water distribution coefficient; type: physicochemical; settings: decadiene and aqueous buffer
[2] = Stability in simulated intestinal fluid (SIF); type: in vitro ADME; settings: SIF-containing pancreatin, pH 6.8, 37 °C, 1–4 h
Protocol: (§1) The stability assay of peptides in SIF was conducted according to United States Pharmacopeia & National Formulary (USP 25-NF 20)[64] and the previous report[65] with some modifications as follows. SIF used in this study was prepared by dissolving pancreatin (1.25 mg/mL) (Sigma, P7545, 8 × USP specifications) in 50 mM phosphate buffer at pH 6.8. The solution was vortexed for 1 min, sonicated for 15 min, centrifuged at 20,000 × g for 10 min, and filtered before use. 57 μL of SIF was incubated at 37 °C for 15 min and 3 μL of 1 μM peptide solution in DMSO was added to the warmed […]. After 1, 2, or 4 h, 60 μL of ice-cold ultra-pure water containing 5% trifluoroacetic acid was added and 120 μL of 30% acetonitrile in ultra-pure water was added. The samples were filtered and injected into UPLC.

[3] = Stability in simulated gastric fluid (SGF); type: in vitro ADME; settings: SGF-containing pepsin, pH 1.2, 37 °C, 1–4 h
Protocol: as §1, with “SGF” for “SIF”, “pepsin (3.6” for “pancreatin (1.25”, “P7012, 3357 Unit/mg)” for “P7545, 8 × USP specifications)”, “an aqueous solution of 2 mg/mL sodium chloride (NaCl)” for “50 mM phosphate buffer”, “1.2.” for “6.8.”

Solubility assay = type: physicochemical; settings: phosphate buffer (pH 7.4) containing 1.2% DMSO, 37 °C, read-out: Water solubility
[4] = Caco-2 assay (permeability across cell monolayers); type: in vitro ADME; settings: for Papp: Caco-2, 1 μM compounds in HBSS (pH 7.4) containing 10 mM HEPES and 1% DMSO, 3 h incubation at 37 °C, read-out: Caco-2 permeability Pa; for efflux ratio: read-out: Efflux ratio, Pe (basolateral-to-apical)/Pe (apical-to-basolateral)
in vitro = in vitro ADME; settings: PAMPA
Caco-2 cells = experiment: Caco-2 assay (permeability across cell monolayers); type: in vitro ADME; settings: 55 μM

Stability in mouse serum (Mouse serum stability) | log Ddec/w (1,9-decadiene–water distribution coefficient) [1] | Degradation in SIF [2] | Degradation in SGF [3] | solubility kinetic at 4 h (Solubility assay) [µM] | Time within which degraded in mouse serum (Mouse serum stability) [h] | Papp [4] [×10⁻⁶ cm/s] | Papp (in vitro) [×10⁻⁶ cm/s] | efflux ratio ([4]; Caco-2, pH 7.4, Inhibitor (+): quinidine, sulfasalazine, benzbromarone, 2 h incubation) | efflux ratio ([4]; Caco-2, pH 7.4, Inhibitor (–), 1 μM, 2 h incubation) | Papp A→B ([4]; Caco-2, pH 7.4, Inhibitor (+): preincubated with 50 µM quinidine, 20 µM sulfasalazine, 30 µM benzbromarone, 2 h incubation, read-out: Pe (apical-to-basolateral)) [×10⁻⁶ cm/s] | Papp B→A ([4]; Caco-2, pH 7.4, Inhibitor (+): preincubated with 50 µM quinidine, 20 µM sulfasalazine, 30 µM benzbromarone, 2 h incubation, read-out: Pe (basolateral-to-apical)) [×10⁻⁶ cm/s] | Papp A→B at 2 h, 1 μM ([4]; human, Caco-2, pH 7.4, Inhibitor (–), 1 μM, 2 h incubation, read-out: Pe (apical-to-basolateral)) [×10⁻⁶ cm/s] | Papp B→A at 2 h, 1 μM ([4]; human, Caco-2, pH 7.4, Inhibitor (–), 1 μM, 2 h incubation, read-out: Pe (basolateral-to-apical)) [×10⁻⁶ cm/s] | Compound | Caco-2 permeability compared with CP1 at higher concentration (Caco-2 cells)
stable | 1.2 | no significant degradation | no significant degradation | – | – | 2 | 2.9 | – | – | – | – | – | – | CC(C)C[C@@H]1NC(=O)[C@H](Cc2ccc(O)cc2)OC(=O)[C@H]2CCCN2C(=O)[C@H](CC(C)C)NC(=O)[C@H](CC(C)C)NC(=O)[C@@H](CC(C)C)NC1=O [DP1] (cyclo(LL[dP][Hpla]L[dL])) | –
– | – | – | – | – | – | 0.9 | 2 | 1.05 | 27.2 | 14.6 ± 3.5 | 15.3 ± 1.1 | 1.5 ± 0.4 | 40.8 ± 11 | CC(C)C[C@@H]1NC(=O)[C@@H](CC(C)C)NC(=O)[C@H](CC(C)C)OC(=O)[C@H](Cc2ccc(O)cc2)NC(=O)[C@H]2CCCN2C(=O)[C@H](CC(C)C)NC1=O [DP2] (cyclo(LL[dP]Y[Hica(2S)][dL])) | significantly higher permeability than CP1

Second part, the compound before the results:

Compound | Stability in mouse serum (Mouse serum stability) | log Ddec/w (1,9-decadiene–water distribution coefficient) [1] | Degradation in SIF [2] | Degradation in SGF [3] | solubility kinetic at 4 h (Solubility assay) [µM] | Time within which degraded in mouse serum (Mouse serum stability) [h] | Papp [4] [×10⁻⁶ cm/s] | Papp (in vitro) [×10⁻⁶ cm/s] | efflux ratio ([4]; Caco-2, pH 7.4, Inhibitor (+): quinidine, sulfasalazine, benzbromarone, 2 h incubation) | efflux ratio ([4]; Caco-2, pH 7.4, Inhibitor (–), 1 μM, 2 h incubation) | Papp A→B ([4]; Caco-2, pH 7.4, Inhibitor (+): preincubated with 50 µM quinidine, 20 µM sulfasalazine, 30 µM benzbromarone, 2 h incubation, read-out: Pe (apical-to-basolateral)) [×10⁻⁶ cm/s] | Papp B→A ([4]; Caco-2, pH 7.4, Inhibitor (+): preincubated with 50 µM quinidine, 20 µM sulfasalazine, 30 µM benzbromarone, 2 h incubation, read-out: Pe (basolateral-to-apical)) [×10⁻⁶ cm/s] | Papp A→B at 2 h, 1 μM ([4]; human, Caco-2, pH 7.4, Inhibitor (–), 1 μM, 2 h incubation, read-out: Pe (apical-to-basolateral)) [×10⁻⁶ cm/s] | Papp B→A at 2 h, 1 μM ([4]; human, Caco-2, pH 7.4, Inhibitor (–), 1 μM, 2 h incubation, read-out: Pe (basolateral-to-apical)) [×10⁻⁶ cm/s] | Caco-2 permeability compared with CP1 at higher concentration (Caco-2 cells)
CC(C)C[C@@H]1NC(=O)[C@H](Cc2ccc(O)cc2)NC(=O)[C@H]2CCCN2C(=O)[C@H](CC(C)C)NC(=O)[C@H](CC(C)C)NC(=O)[C@@H](CC(C)C)NC1=O [CP1] (cyclo(LL[dP]YL[dL])) | stable | −0.74 | no significant degradation | no significant degradation | > 100 | – | – | – | – | – | – | – | – | – | –
CC(C)C[C@H](NC(=O)[C@H](CC(C)C)NC(=O)[C@@H](CC(C)C)NC(=O)[C@H](CC(C)C)NC(=O)[C@H](Cc1ccc(O)cc1)OC(=O)[C@H]1CCCN1)C(N)=O [DP1L-NH2] (H-[dP][Hpla]L[dL]LL-NH2) | – | – | – | – | – | ≤ 2 | – | – | – | – | – | – | – | – | –
CC(C)C[C@@H]1NC(=O)[C@@H](CC(C)C)NC(=O)[C@H](CC(C)C)NC(=O)[C@H](Cc2ccc(O)cc2)N(C)C(=O)[C@H]2CCCN2C(=O)[C@H](CC(C)C)NC1=O [MP1] (cyclo(LL[dP][NMeY]L[dL])) | stable | 0.052 | no significant degradation | no significant degradation | – | – | 0.6 | 1.7 | – | – | – | – | – | – | –
